From publication PMC3397408, “Natural and synthetic cathelicidin peptides with anti-microbial and anti-biofilm activity against Staphylococcus aureus” (BMC Microbiology, 2011)
Where two headings read alike, the source gives them in different places. Where no end group is shown, it is not given here.

Columns and labels:
[1] = tested on: erythrocytes; conditions: examined up to 200 μg/ml; cited from earlier work
Protocol: The hemolytic activity of each of the peptides was determined using 2% horse erythrocytes as previously described.

[2] = tested on: S. aureus attachment to 96-well plate; test: Biofilm attachment assay; format: cell-based, Staphylococcus aureus; conditions: peptide 1 μg/ml, 1 h, 37°C, TSB culture OD600 ~1.0, n = 16, Student's t test
Protocol: The attachment of Staphylococcus spp. to solid surfaces is largely seen as an essential step in the formation of biofilm. Since most of the peptides tested in our biofilm assays were capable of inhibiting biofilm formation (except for scrambled LL-37), we investigated a possible mechanism for this action. We incubated scrambled LL-37 (negative control), LL-37, D-LL-37, NA-CATH, and NA-CATH:ATRA1-ATRA1 peptides with S. aureus in a 1 hr attachment assay at peptide concentrations of 1 ug/ml, examining for the initial adherence to the wells of the 96 well tissue-culture treated plate.
Figure 3 Attachment assay of S. aureus in the presence of peptide. We tested scrambled LL-37 (negative control), LL-37, D-LL-37, NA-CATH, and NA-CATH:ATRA1-ATRA1 against S. aureus (1 h, 37°C) at 1 μg/ml, only allowing for the initial adherence to the wells.
Biofilm attachment assays were performed in a 96-well microtiter plate (BD Falcon 353072), as previously described. Overnight cultures of S. aureus were grown in TSB to an optical density (600nm) of ~1.0. 200 μl culture was added to the wells, followed by no peptide, scrambled LL-37 , LL-37, D-LL-37, NA-CATH, or NA-CATH:ATRA1-ATRA1 at 1 μg/ml. […] The wells were washed and OD600 measurements were taken, as in the biofilm production experiments, and the average absorbance for each treatment was determined (n = 16).

[3] = tested on: S. aureus; test: Bacterial growth / MIC in TSB; format: cell-based, Staphylococcus aureus; conditions: TSB (relatively high salt), peptide concentrations up to the EC50 found in 10 mM sodium phosphate
Protocol: (§1) C. […] Growth (absorbance at 600 nm) is indicated by gray bars with "0 peptide" control set to 100%. Biofilm detection on a polystyrene 96-well plate at 37°C after 24 h of growth in TSB was detected as the absorbance of crystal violet stain (570 nm). Percent biofilm production is indicated by black bars (n = 6), relative to "0 peptide" control. Each experiment is a representative of at least two independent trials. Error bars indicate the standard deviation from the mean. The asterisk (*) indicates statistically different than the positive control (p < 0.01).
(§2) Biofilm production was measured as previously described with the following modifications. […] The positive control is S. aureus in TSB with no peptide. Six wells were used for each peptide concentration (n = 6). After 24 h, the optical densities (OD) of the wells were taken at 600nm to quantify […]. The biofilm production was measured using the crystal violet stain technique.

[4] = tested on: S. aureus biofilm formation; conditions: peptide 10 μg/ml, TSB, 24 h, 37°C, polystyrene 96-well plate, crystal violet 570 nm, n = 6, relative to 0 peptide control
Protocol: as §1, §2
All experiments were repeated at least twice, with a representative experiment shown.

[5] = tested on: S. aureus (ATCC 25923)
Protocol: S. aureus (ATCC 25923, American Type Culture Collection, Manassas, VA) was grown in Nutrient Broth (Difco Laboratories, Detroit, Mich.) at pH 7, 37°C, 24 h with shaking at 200 rpm. The overnight culture was frozen with 20% glycerol and stored at -80°C. The frozen stock was enumerated (CFU/ml) by dilution plating and growth on Nutrient Agar plates.
For anti-microbial assays, frozen enumerated aliquots were thawed and gently mixed immediately before use. In a 96-well plate (BD Falcon 353072), 1 × 10^5 CFU per well bacteria were incubated with different peptide concentrations (in serial dilutions of 1:10 across the plate) in a solution of buffer containing sterile 10 mM sodium phosphate (pH 7.4) and incubated (3 h, 37°C). Negative control wells contained bacteria with no peptide. Serial dilutions were then carried out in sterile 1x PBS (Fisher Scientific) (pH 7) and plated in triplicate on Nutrient Agar plates, incubated (37°C, 24 h) and counted. […] The EC50 was calculated as previously described.
Each experiment was repeated at least twice, and a representative experiment is shown, for clarity. Errors were reported based on the standard deviation from the mean of the log10 EC50 values. 95% confidence intervals were used to determine whether points were statistically different at p = 0.05.

Row | Compound | hemolytic activity [1] | attachment of S. aureus to the wells [2] | bacterial growth (OD600 at 24 hours) [3] | inhibition of biofilm formation [4] | EC50 ([5]; EC50 in μg/ml converted with the molecular weight of the TFA salt of the peptide) | EC50 ([5]; S. aureus ATCC 25923, 1 × 10^5 CFU per well, 3 h, 37°C, 10 mM sodium phosphate (pH 7.4), % survival by CFU counts, plated in triplicate, representative experiment) | fold change of activity against S. aureus, ATRA-1A compared to ATRA-1 ([5]; p > 0.05)
1 | CC[C@H](C)[C@H](NC(=O)[C@H](CCCCN)NC(=O)[C@H](CCC(=O)O)NC(=O)[C@H](CCCCN)NC(=O)[C@H](CO)NC(=O)[C@H](CCCCN)NC(=O)[C@H](CCCNC(=N)N)NC(=O)[C@H](Cc1ccccc1)NC(=O)[C@H](Cc1ccccc1)NC(=O)[C@H](CC(=O)O)NC(=O)CNC(=O)[C@H](CC(C)C)NC(=O)[C@@H](N)CC(C)C)C(=O)NCC(=O)N[C@@H](CCCCN)C(=O)N[C@@H](CCC(=O)O)C(=O)N[C@@H](Cc1ccccc1)C(=O)N[C@@H](CCCCN)C(=O)N[C@@H](CCCNC(=N)N)C(=O)N[C@H](C(=O)N[C@H](C(=O)N[C@@H](CCC(N)=O)C(=O)N[C@@H](CCCNC(=N)N)C(=O)N[C@H](C(=O)N[C@@H](CCCCN)C(=O)N[C@@H](CC(=O)O)C(=O)N[C@@H](Cc1ccccc1)C(=O)N[C@@H](CC(C)C)C(=O)N[C@@H](CCCNC(=N)N)C(=O)N[C@@H](CC(N)=O)C(=O)N[C@@H](CC(C)C)C(=O)N[C@H](C(=O)N1CCC[C@H]1C(=O)N[C@@H](CCCNC(=N)N)C(=O)N[C@H](C(=O)N[C@@H](CCC(=O)O)C(=O)N[C@@H](CO)C(=O)O)[C@@H](C)O)C(C)C)[C@@H](C)CC)C(C)C)[C@@H](C)CC [LL-37] | similarly low levels | significantly decreased | not decreased | ~ 40% |  |  | 
2 | KRAKKFFKKLK-NH2 [ATRA-1A] |  |  |  |  | 310 nM | 0.73 µg/mL | 1.4 fold
